Columns and labels:
Assay type in all cases: in vivo, C57BL/6 mice
NFκB = assay: Mice study #2: NFκB immunostaining of gingival tissue
Procedure: (§1) Mice study #2: Validation study for preventive and active treatment for DIGO. […] One set of these mice were used as a control disease group (FIG. 23A) while the other group was treated with folic acid (gel and in drinking water) (FIG. 23B). In the prevention and treatment group, folic acid (10 μg/ml) (Sigma-Aldrich, St. Louis MO) was included in the drinking water from the time of suture placement until end of the study (14 days). Additionally, gel applications were repeated daily until the end of the study (14 days). The four groups in this study were: • 1. Control group (n=2): no interventions were performed • 2.
(§2) Histopathology and Immunohistochemistry. Mice mandibles were fixed in 10% formaldehyde for overnight at 4° C. on the shaker with 45 rpm and then the solutions were replaced with 70% ethanol. The tissues were decalcified with 10% ethylenediaminetetraacetic acid (EDTA) for 1 week and were dehydrated through graded ethanol, cleared with xylene, and embedded in paraffin. 4 μm serial sections were cut in a buccal-lingual direction and stained with Hematoxylin and Eosin (HE) and observed under light microscopy for histomorphological evaluations.
(§3) For immunohistochemistry, unstained sections were deparaffinized in xylene for 10 minutes and then transferred to ethanol for 20 minutes. […]

LITAF = assay: Mice study #2: LITAF immunoblotting of gingival samples; settings: pattern as for Myd88 (disease higher than control and treatment)
Procedure: Western blot analysis. Cells were seeded in 60 mm plates with a density of 5×10^5 cells per plate and washed briefly with Dulbecco's phosphate-buffered saline (Gibco, Waltham, MA, USA). Whole cell lysates were prepared using RIPA lysis buffer containing protease inhibitor cocktail (Sigma-Aldrich). Total protein concentration was determined using the BCA reagent (Pierce, Waltham, MA, USA). 20 μg of total protein were resolved on sodium dodecyl sulfate-polyacrylamide gel electrophoresis and transferred to polyvinylidenedifluoride membrane and immunoblotted. The blots were incubated for 1 h in 1% bovine serum albumin (BSA) (Sigma-Aldrich) to block the non-specific bindings followed by over-night incubation in primary antibodies (MyD88 and pP65 from Cell Signaling Technology, and human LITAF ThermoFisher Sigma) at 4° C. on shaker. Next day, blots were washed for three times (10 min each) in Tris-buffered saline containing 1% Tween20 (TBST) followed by incubation with secondary antibody (Goat anti-rabbit IgG HRP) with 1:10,000 dilution for 1 h. […] The band intensities were quantified using software ImageJ (NIH, USA) and relative protein levels were normalized by β-actin (Cell Signaling). […] The band intensities were measured by the software ImageJ (NIH, USA), and relative protein levels were normalized by β-actin.

Myd88 = assay: Mice study #2: Myd88 immunostaining of gingival tissue; settings: preventive and active treatment groups consistent
Procedure: as §1, §2, §3

Nc1nc2ncc(CNc3ccc(C(=O)N[C@@H](CCC(=O)O)C(=O)O)cc3)nc2c(=O)[nH]1 [folic acid]
NFκB epithelial expression, control, disease and folic acid-treated groups (NFκB): higher in the control group followed by the disease group
LITAF expression, pattern across groups (LITAF): a similar pattern
epithelial Myd88 expression, disease group relative to folic acid-treated group (Myd88): significantly higher compared to both treated and control groups

From patent publication US20260000496A1, “MATERIALS AND METHODS FOR DRUG-INDUCED GINGIVAL OVERGROWTH” (Optimed Technology, Inc., priority 2019, published 2026)
